Test results from the supplement of paper PMC10307832.

Experiments:
Assay in all cases: relative viability (nuclei count vs DMSO), 5 days (fraction); higher = more cells survive
[1] = compound: C1=CC(=CC=C1C2=CC(=C(S2)NC(=O)N)C(=O)N)F [TPCA-1] + CCNC(=O)c1noc(-c2cc(C(C)C)c(O)cc2O)c1-c1ccc(CN2CCOCC2)cc1 [Luminespib] (partner 0.01 µM)
Summary of the method: (§1)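 Lung cancer cell lines were pin-tool dosed in 1536-well plates on the day after seeding, with either a lone drug or a fixed anchor-drug dose plus five library-drug doses (not always all listed) in √10 steps. Nuclei were counted on 4× images after 5 days. Relative viability is the ratio of treated-well to vehicle-well nuclei counts, with each value a median of duplicate plates.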

[2] = compound: C1/C(=C\C2=CC=CS2)/C(=O)/C(=C/C3=CC=CS3)/C1 + CC1(C)CCC(c2ccc(Cl)cc2)=C(CN2CCN(c3ccc(C(=O)NS(=O)(=O)c4ccc(N[C@H](CCN5CCOCC5)CSc5ccccc5)c(S(=O)(=O)C(F)(F)F)c4)cc3)CC2)C1 [Navitoclax] (partner 0.5 µM)
Summary of the method: as §1

[3] = compound: C1/C(=C\C2=CC=CS2)/C(=O)/C(=C/C3=CC=CS3)/C1 + N=C(N)NC(=N)NCCc1ccccc1 [Phenformin] (partner 250 µM)
Summary of the method: as §1

[4] = compound: C1=CC(=CC=C1C2=CC(=C(S2)NC(=O)N)C(=O)N)F [TPCA-1] + CC(=O)Nc1cccc(-n2c(=O)n(C3CC3)c(=O)c3c(Nc4ccc(I)cc4F)n(C)c(=O)c(C)c32)c1 [Trametinib] (partner 0.02 µM)
Summary of the method: as §1

Cell Line	relative viability ([1]; first compound 0.04 µM)	relative viability ([1]; first compound 0.1265 µM)	relative viability ([1]; first compound 0.4 µM)	relative viability ([1]; first compound 4 µM)	relative viability ([2]; first compound 0.2 µM)	relative viability ([2]; first compound 0.6325 µM)	relative viability ([2]; first compound 2 µM)	relative viability ([2]; first compound 6.325 µM)	relative viability ([2]; first compound 20 µM)	relative viability ([3]; first compound 0.2 µM)	relative viability ([3]; first compound 0.6325 µM)	relative viability ([3]; first compound 2 µM)	relative viability ([3]; first compound 6.325 µM)	relative viability ([3]; first compound 20 µM)	relative viability ([4]; first compound 0.04 µM)	relative viability ([4]; first compound 0.1265 µM)	relative viability ([4]; first compound 0.4 µM)	relative viability ([4]; first compound 1.265 µM)	relative viability ([4]; first compound 4 µM)	relative viability ([1]; first compound 1.265 µM)
HCC-44	0.958	1.03	1.02	0.983	0.903	0.987	0.935	0.832	0.895	0.161	0.27	0.278	0.21	0.161	1.09	0.983	1.09	0.914	1.02	–
SW 1573	0.186	0.181	0.217	0.188	0.908	0.979	1.15	0.862	0.833	0.397	0.412	0.355	0.363	0.398	0.611	0.569	0.535	0.516	0.545	0.204
PC-3 [JPC-3]	0.5	0.639	0.682	0.569	0.83	0.753	0.904	0.716	0.841	0.494	0.495	0.452	0.423	0.458	0.755	0.692	0.73	0.757	0.642	0.675
LOU-NH91	0.346	0.254	0.397	0.318	0.726	0.744	0.724	0.581	0.723	0.696	0.757	0.843	0.67	0.736	0.8	0.735	0.835	0.773	0.714	0.255
PC-14	0.133	0.165	0.177	0.143	1.05	0.987	0.978	0.88	0.999	0.823	0.762	0.611	0.539	0.631	0.885	0.687	0.79	0.705	0.57	0.146
NCI-H2087	0.171	0.176	0.156	0.141	1.13	1.04	0.933	0.669	1.05	0.5	0.546	0.553	0.393	0.431	0.201	0.163	0.231	0.152	0.139	0.15
LU99A	0.34	0.302	0.241	0.231	0.734	0.796	0.814	0.788	0.793	0.771	0.819	0.857	0.819	0.801	0.66	0.487	0.553	0.466	0.284	0.349
BEN	0.329	0.358	0.405	0.191	0.0742	0.059	0.368	0.0733	0.0554	0.268	0.293	0.285	0.214	0.257	1.04	0.736	1.18	1.39	1.04	0.492
SK-LU-1	0.232	0.203	0.212	0.215	0.698	0.767	0.813	0.969	0.799	0.634	0.56	0.672	0.473	0.486	0.532	0.452	0.474	0.396	0.263	0.206
NCI-H1975	0.577	0.275	0.2	0.129	1.09	1.19	1.04	0.912	1.08	0.399	0.388	–	0.37	0.411	0.358	0.365	0.392	0.43	0.147	0.199
RERF-LC-KJ	1.3	1.25	1.26	0.852	0.949	0.995	0.965	0.787	0.86	0.407	0.461	0.474	0.432	0.432	0.852	0.786	0.89	0.756	0.732	1.14
NCI-H441	0.448	0.414	0.386	0.19	0.779	0.769	0.523	0.527	0.572	0.826	1.01	0.955	0.77	0.772	0.402	0.405	0.422	0.459	0.266	0.297
NCI-H1915	0.883	0.804	0.754	0.581	0.788	0.758	0.818	0.754	0.818	0.365	0.378	0.362	0.205	0.37	0.343	0.272	0.286	0.279	0.263	0.852
